Measured values: US7838463B2, “Safeners based on acrylic-aliphatic carboxylic acid derivatives” (Bayer CropScience AG, priority 2003, dated 2010)

Columns and labels:
Assay type in all cases: in vivo
[1] = tested on: Zea mays (corn), cv. 'Lorenzo'; experiment: Pre-emergence application of herbicide H1 (isoxaflutole) and safener by the tank mix method: crop damage
Procedure: (§1) Seeds of various crop plants and weed species were sown in sandy loam soil in round plastic pots of a diameter of 13 cm and covered with a layer of sandy loam of a thickness of about 1 cm. Herbicides and safeners in the form of liquid (for example emulsion concentrates) or dry (for example water-dispersible powders) formulations were diluted with deionized water to the required concentrations and applied to the surface of the soil with a spray bar using a water application rate of 300 liters per hectare. In the experiment shown below, the safeners were used as 20 percent strength water-dispersible powders and the herbicide isoxaflutole was used as an aqueous suspension concentrate (see table 1.1.1). The pots were placed in a greenhouse under favorable growth conditions. Visual scoring of the herbicidal action was carried out four weeks after the herbicide application. Evaluation was carried out on a percentage basis by comparison with untreated control plants (0%=no noticeable effect compared with the untreated plant, 100%=treated plant dies).

[2] = tested on: Chenopodium album; experiment: Pre-emergence application of herbicide H1 (isoxaflutole) and safener by the tank mix method: herbicidal action; conditions: four weeks
Procedure: as §1

[3] = tested on: Setaria viridis; experiment: as above; conditions: four weeks
Procedure: as §1

[4] = tested on: Glycine max (soybean), cv. 'Lambert'; experiment: Pre-emergence application of herbicide H1 (isoxaflutole) after seed dressing with safener; conditions: for % damage in GLXMA: four weeks
Procedure: (§2) The number of crop plant seeds required for each application rate of safener was calculated. Sufficient seeds were weighed-out into glass bottles having a screw-on lid. The volume of the glass bottles was approximately twice that of the seeds weighed out.
(§3) The safeners were formulated as 20 percent strength water-dispersible powders. These formulations were weighed out to give the required application rates (g of a.i./kg of seed). The samples were added to the seed in the glass containers, and sufficient water to form a suitable seed dressing was then added. The glass bottles were closed and then mounted in an overhead shaker (which turns the bottles at moderate speed for a period of up to one hour) so that the seeds were uniformly covered with the seed dressing. The bottles were opened and the seed was ready for use in pre-emergence or post-emergence experiments, as described below.
(§4) The seeds which had been treated with safeners and untreated seeds as controls were sown in sandy loam soil in round plastic pots of a diameter of 13 cm and covered with a layer of sandy loam of a thickness of about 1 cm. The herbicides in the form of liquid (for example emulsion concentrates) or dry (for example water-dispersible powders) formulations were diluted with deionized water to the required concentrations and applied to the surface of the soil with a spray bar using a water application rate of 300 liters per hectare. In the two experiments shown below (results see tables 2.2.1 and 2.2.2), the herbicide isoxaflutole was used as an aqueous suspension concentrate.
(§5) The pots were placed in a greenhouse under favorable growth conditions. Visual scoring of the herbicidal action was carried out four weeks after the herbicide application. Evaluation was carried out on a percentage basis by comparison with untreated control plants (0%=no noticeable effect compared with the untreated plant, 100%=treated plant dies).

[5] = tested on: Zea mays (corn), cv. 'Lorenzo'; experiment: as above; conditions: for % damage in ZEAMA: four weeks
Procedure: as §2, §3, §4, §5

[6] = tested on: Zea mays (corn), cv. 'Lorenzo'; experiment: Post-emergence application of herbicide H2 (foramsulfuron) and safener by the tank mix method: crop damage
Text: (§6) Seeds of various crop plants and weed species were sown in sandy loam soil in round plastic pots of a diameter of 13 cm and covered with a layer of sandy loam of a thickness of about 1 cm. The pots were placed in a greenhouse under favorable growth conditions for a period of about two to three weeks, allowing the plants to reach a growth stage of 2 to 4 leaves. The herbicides in the form of liquid (for example emulsion concentrates) or dry (for example water-dispersible powders) formulations were mixed with a standard additive (based on rapeseed oil methyl ester), diluted with deionized water to the required concentrations and applied to the green parts of the plants and the uncovered part of the soil surface with a spray bar using a water application rate of 300 liters per hectare. In the experiment shown below, safener and the herbicide foramsulfuron were in each case used as 20 percent strength water-dispersible powder (results see table 1.2.1). The pots were placed in a greenhouse under favorable growth conditions. Visual scoring of the herbicidal action was carried out four weeks after the herbicide application. Evaluation was carried out on a percentage basis by comparison with untreated control plants (0%=no noticeable effect compared with the untreated plant, 100%=treated plant dies).

[7] = tested on: Amaranthus retroflexus; experiment: Post-emergence application of herbicide H2 (foramsulfuron) and safener by the tank mix method: herbicidal action; conditions: four weeks
Text: as §6

[8] = tested on: Setaria viridis; experiment: as above; conditions: four weeks
Text: as §6

[9] = tested on: Zea mays (corn), cv. 'Lorenzo'; experiment: Post-emergence application of herbicide H3 (glufosinate-ammonium) and safener by the tank mix method: crop damage
Text: (§7) Seeds of various crop plants and weed species were sown in sandy loam soil in round plastic pots of a diameter of 13 cm and covered with a layer of sandy loam of a thickness of about 1 cm. The pots were placed in a greenhouse under favorable growth conditions for a duration of about two to three weeks, allowing the plants to reach a growth stage of 2 to 4 leaves. The herbicides, in the form of liquid (for example emulsion concentrates, aqueous solutions) or dry (for example water-dispersible powders) formulations, were diluted with deionized water to the required concentrations and applied to the green parts of the plants and the uncovered part of the surface of the soil with a spray bar using a water application rate of 300 liters per hectare. In the experiment shown below, the safeners were used as 20 percent strength water-dispersible powders and the herbicide glufosinate-ammonium as a commercial 20 percent strength aqueous surfactant-containing solution (results see table 1.2.2).
as §5, with “herbicidal” for “herbicide”

[10] = tested on: Amaranthus retroflexus; experiment: Post-emergence application of herbicide H3 (glufosinate-ammonium) and safener by the tank mix method: herbicidal action; conditions: four weeks
Text: as §7
as §5, with “herbicidal” for “herbicide”

[11] = tested on: Chenopodium album; experiment: as above; conditions: four weeks
Text: as §7
as §5, with “herbicidal” for “herbicide”

[12] = tested on: Zea mays (corn), cv. 'Lorenzo'; experiment: Post-emergence application of herbicide H2 (foramsulfuron) after seed dressing with safener; conditions: for % damage in ZEAMA: four weeks
Procedure: The number of crop plant seeds required for each application rate of safener was calculated. Sufficient seeds were weighed-out into glass bottles having a screw-on lid. The volume of the glass bottles was approximately twice that of the seeds weighed out. The safeners were formulated as 20 percent strength water-dispersible powders. These formulations were weighed out to give the required application rates (g of a.i./kg of seed). The samples were added to the seed in the glass containers, and sufficient water to form a suitable seed dressing was then added. The glass bottles were closed and then mounted in an overhead shaker (which turns the bottles at moderate speed for a period of up to one hour) so that the seeds were uniformly covered with the seed dressing. The bottles were opened and the seed was ready for use in pre-emergence or post-emergence experiments, as described below. The seeds treated with safener and untreated seeds were sown in sandy loam soil in round plastic pots of a diameter of 13 cm and covered with a layer of sandy loam of a thickness of about 1 cm. The pots were placed in a greenhouse under favorable growth conditions for a period of about two to three weeks, allowing the plants to reach a growth stage of 2 to 4 leaves. The herbicides in the form of liquid (for example emulsion concentrates) or dry (for example water-dispersible powders) formulations were mixed with a standard additive (based on rapeseed oil methyl ester), diluted with deionized water to the required concentrations and applied to the green parts of the plants and the uncovered part of the soil surface with a spray bar using a water application rate of 300 liters per hectare. In the experiment shown below, the herbicide foramsulfuron was used as 20 percent strength water-dispersible powder (results see table 2.3.1). The pots were placed in a greenhouse under favorable growth conditions. Visual scoring of the herbicidal action was carried out four weeks after the herbicide application. Evaluation was carried out on a percentage basis by comparison with untreated control plants (0%=no noticeable effect compared with the untreated plant, 100%=treated plant dies).

[13] = herbicide H1 (isoxaflutole) 100 g a.i./ha alone, no safener, pre-emergence
[14] = untreated seed (no safener), herbicide H1 (isoxaflutole) 100 g a.i./ha pre-emergence
[15] = safener 250 g a.i./ha + herbicide H1 (isoxaflutole) 100 g a.i./ha, pre-emergence tank mix
[16] = safener 250 g a.i./ha + herbicide H2 (foramsulfuron) 40 g a.i./ha, post-emergence tank mix
[17] = safener 250 g a.i./ha + herbicide H3 (glufosinate-ammonium) 250 g a.i./ha, post-emergence tank mix
[18] = seed dressing with safener 1 g a.i./kg of seed, then herbicide H1 (isoxaflutole) 100 g a.i./ha pre-emergence
[19] = herbicide H3 (glufosinate-ammonium) 250 g a.i./ha alone, no safener, post-emergence
[20] = herbicide H2 (foramsulfuron) 40 g a.i./ha alone, no safener, post-emergence

CS(=O)(=O)c1cc(C(F)(F)F)ccc1C(=O)c1cnoc1C1CC1 [Herbicide H1, isoxaflutole, reference compound]
% damage in ZEAMA ([1]; herbicide H1 (isoxaflutole) 100 g a.i./ha alone, no safener, pre-emergence, four weeks): 27%
Herbicidal action as % damage in CHEAL [2, 13]: 92%
Herbicidal action as % damage in SETVI [3, 13]: 95%
% damage in GLXMA [4, 14]: 83%
% damage in ZEAMA [5, 14]: 25%

O=C(O)C=Cc1ccccc1O [Comp. 17, 2-hydroxycinnamic acid]
Safener action as % damage reduction in crop plants ([1]; ZEAMA, safener 250 g a.i./ha + herbicide H1 (isoxaflutole) 100 g a.i./ha, pre-emergence tank mix, versus herbicide alone): 82%
% damage in ZEAMA ([1]; safener 250 g a.i./ha + herbicide H1 (isoxaflutole) 100 g a.i./ha, pre-emergence tank mix, visual scoring four weeks after application, 0%=no effect, 100%=plant dies): 5%
Herbicidal action as % damage in CHEAL [2, 15]: 94%
Herbicidal action as % damage in SETVI [3, 15]: 96%
Safener action as % damage reduction in crop plants ([6]; ZEAMA, safener 250 g a.i./ha + herbicide H2 (foramsulfuron) 40 g a.i./ha, post-emergence tank mix, versus herbicide alone): 78%
% damage in ZEAMA ([6]; safener 250 g a.i./ha + herbicide H2 (foramsulfuron) 40 g a.i./ha, post-emergence tank mix, visual scoring four weeks after application): 8%
Herbicidal action as % damage in AMARE [7, 16]: 94%
Herbicidal action as % damage in SETVI [8, 16]: 98%
Safener action as % damage reduction in crop plants ([9]; ZEAMA, safener 250 g a.i./ha + herbicide H3 (glufosinate-ammonium) 250 g a.i./ha, post-emergence tank mix, versus herbicide alone): 61%
% damage in ZEAMA ([9]; safener 250 g a.i./ha + herbicide H3 (glufosinate-ammonium) 250 g a.i./ha, post-emergence tank mix, visual scoring four weeks after application): 24%
Herbicidal action as % damage in AMARE [10, 17]: 95%
Herbicidal action as % damage in CHEAL [11, 17]: 97%
Safener action as % damage reduction in crop plants ([4]; GLXMA, seed dressing with safener 1 g a.i./kg of seed, herbicide H1 (isoxaflutole) 100 g a.i./ha pre-emergence, versus untreated seed): 60%
% damage in GLXMA [4, 18]: 33%
Safener action as % damage reduction in crop plants ([5]; ZEAMA, seed dressing with safener 1 g a.i./kg of seed, herbicide H1 (isoxaflutole) 100 g a.i./ha pre-emergence, versus untreated seed): 68%
% damage in ZEAMA [5, 18]: 8%
Safener action as % damage reduction in crop plants ([12]; ZEAMA, seed dressing with safener 1 g a.i./kg of seed, herbicide H2 (foramsulfuron) 40 g a.i./ha post-emergence, versus untreated seed): 81%
% damage in ZEAMA ([12]; seed dressing with safener 1 g a.i./kg of seed, then herbicide H2 (foramsulfuron) 40 g a.i./ha post-emergence): 6%

CP(=O)(O)CCC(N)C(=O)O (stereo not drawn) [Herbicide H3, glufosinate-ammonium, reference compound]
% damage in ZEAMA ([9]; herbicide H3 (glufosinate-ammonium) 250 g a.i./ha alone, no safener, post-emergence, four weeks): 62%
Herbicidal action as % damage in AMARE [10, 19]: 90%
Herbicidal action as % damage in CHEAL [11, 19]: 92%

COc1cc(OC)nc(NC(=O)NS(=O)(=O)c2cc(NC=O)ccc2C(=O)N(C)C)n1 [Herbicide H2, foramsulfuron, reference compound]
% damage in ZEAMA ([6]; herbicide H2 (foramsulfuron) 40 g a.i./ha alone, no safener, post-emergence, four weeks): 36%
Herbicidal action as % damage in AMARE [7, 20]: 94%
Herbicidal action as % damage in SETVI [8, 20]: 95%
% damage in ZEAMA ([12]; untreated seed (no safener), herbicide H2 (foramsulfuron) 40 g a.i./ha post-emergence): 32%
